Measurements from US12653832B2, “Methods for treating lung infections and inflammation” (BRIGHAM YOUNG UNIVERSITY, priority 2013, dated 2026).
≈ marks a conversion by molar mass, not a printed value. Each block holds one molecule with its values, some of them ahead of it.

Columns and labels:
P. aeruginosa = experiment: Drug combinations of CSAs and anti-pathogenic substances (synergy); assay type: cell-based
Description: Following the protocols outlined in Appl. Microbiol. Biotechnol., 2010 (September) pp. 251-63 and Chemotherapy, 2011 (November), Vol. 57, pp. 505-10, drug combinations involving CSAs and anti-pathogenic substances are performed.

Pseudomonas aeruginosa = experiment: Assessment of bacterial resistance by serial exposure, MIC; assay type: cell-based; conditions: serial passages (FIG. 2)
Description: (§1) A central consideration in the development of novel antimicrobials is potential generation of bacterial resistance. […] See Pollard J E, et al. J. Antimicrob. Chemother. 2012, 67, 2665-2672 (describing experimental protocol).

Staphylococcus aureus = experiment: as above; assay type: cell-based; conditions: after 30 serial passages
Description: as §1

IL-6 = IL-6 levels in murine pneumonia model; assay type: in vivo, mice; conditions: inhaled, 40 and 80 mg/kg; IL-6 measured from kidney tissue specimens (FIG. 5)
Description: (§2) IL-6 was measured from kidney tissue specimens.

P. aeruginosa (PAO1) [1] = experiment: MIC against infection-model strain; assay type: cell-based
[2] = test system: inflammatory cells around bronchioles in lungs; experiment: Murine lung histology in pneumonia model; assay type: in vivo, mice; conditions: 4 hours post challenge with Pseudomonas PA01
Description: In this experiment, mice were infected with 10^8 PA01 strain of Pseudomonas, representing a murine pneumonia model. […] The CSA treatment was administered 4 hours post challenge with Pseudomonas.

P. aeruginosa (PAO1) [3] = experiment: Animal model of lung infection, bacterial counts in lung tissue; assay type: in vivo, mice; conditions: for elimination of the bacterial burden: 80 mg/kg via nebulization; for reduction in bacterial burden: 80 mg/kg via nebulization four hours after infection
Description: In vivo studies were designed to allow observation of both tolerance for CSAs and effectiveness of the antimicrobial in reducing bacterial burden. An infection model was used in which mice were inoculated with P. aeruginosa (PAO1) intra-nasally (10^5 CFU) to establish an infection. […] Two doses were used: 40 and 80 mg/kg. […] After 24 h, the mice were euthanized, and lung tissues were homogenized. Bacterial counts were determined by serial dilution, plating on nutrient agar, incubation, and colony counting. As a comparator, tobramycin was administered via the same route, and P. aeruginosa counts were determined.
as §2

[4] = test system: tobramycin-resistant P. aeruginosa strains; experiment: MIC against tobramycin resistant strains (cross-resistance); assay type: cell-based; conditions: seven tobramycin resistant P. aeruginosa strains (FIG. 3)
Description: Tobramycin is commonly used in reducing the bacterial burden in the lungs of cystic fibrosis patients. However, resistance to tobramycin is often observed among P. aeruginosa isolates. Tobramycin resistance is typically achieved by acylation or phosphorylation of the primary amine groups in the antibiotic.
Similar studies can be conducted for other drug-resistant pathogenic strains following this standard experimental protocol.

Compound: CCCCCCCCNCCC[C@@H](C)[C@H]1CC[C@H]2[C@@H]3[C@H](OCCCN)C[C@@H]4C[C@H](OCCCN)CC[C@]4(C)[C@H]3C[C@H](OCCCN)[C@]12C [CSA-13]
synergy (P. aeruginosa; combined with ciprofloxaxin): Additional synergies were observed
synergy (P. aeruginosa; combined with tobramycin): Additional synergies were observed
synergistic result (P. aeruginosa; in combination with colistin, against P. aeruginosa): 54%
MIC at which the rise appeared to level off (Pseudomonas aeruginosa): ~20 µg/mL (≈ 29.5 µM)
change in Minimum Inhibitory Concentration (MIC) (Staphylococcus aureus): no significant change
IL-6 levels (IL-6): reduced
MIC (P. aeruginosa (PAO1) [1]): 2.5 µg/mL (≈ 3.69 µM)
inflammatory cells in lung histology ([2]; 40 mg/kg dose): substantial reduction of inflammatory cells
inflammatory cells in lung histology ([2]; 80 mg/kg dose): even greater reduction in inflammatory cells
drop in bacterial counts (P. aeruginosa (PAO1) [3]; 40 mg/kg via nebulization four hours after infection, lung counts after 24 h): two
elimination of the bacterial burden (P. aeruginosa (PAO1) [3]): 99.99%
reduction in bacterial burden (P. aeruginosa (PAO1) [3]; lung counts after 24 h): greater than four
Pseudomonas load (P. aeruginosa (PAO1) [3]; inhaled, 40 and 80 mg/kg, murine pneumonia model (FIG. 5)): reduced
susceptibility of tobramycin resistant strains [4]: all strains were comparably susceptible

reduction of the MIC of erythromycin (P. aeruginosa; CSA-13 administered with erythromycin): 92%
Compound: CC[C@H]1OC(=O)[C@H](C)[C@@H](O[C@H]2C[C@@](C)(OC)[C@@H](O)[C@H](C)O2)[C@H](C)[C@@H](O[C@@H]2O[C@H](C)C[C@H](N(C)C)[C@H]2O)[C@](C)(O)C[C@@H](C)C(=O)[C@H](C)[C@@H](O)[C@]1(C)O [erythromycin, reference compound]

Compound: NC[C@H]1O[C@H](O[C@H]2[C@H](O)[C@@H](O[C@H]3O[C@H](CO)[C@@H](O)[C@H](N)[C@H]3O)[C@H](N)C[C@@H]2N)[C@H](N)C[C@@H]1O [tobramycin, reference compound]
elimination of the bacterial burden (P. aeruginosa (PAO1) [3]): 99.99%
reduction in bacterial burden (P. aeruginosa (PAO1) [3]; lung counts after 24 h): greater than four
susceptibility of tobramycin resistant strains [4]: varied significantly
